“And” between values parts separate entries of the source, which are not always exact repeats. Identical values can stand only once. Like-named read-outs stand apart in the source and are kept apart here.

The target of data set [1] is T1, PDE10A (Homo sapiens, UniProt Q9Y233).
T1 construct: purchased Biocrea GmbH, Radebeul, Germany; host or cells: SF21 insect cells (PDE10A-transfected; baculovirus system is mentioned)
To be noted: cited from earlier work.

A short description of data set [2]: log D7.0 by RP-HPLC retention. Type of data set: physicochemical. The conditions noted are these: MeCN/NH4OAc, pH 7.0, read-out: Log D. From the text:
To clarify these findings, we determined the ligand distribution coefficients for [^18/19F]IV experimentally, under physiological pH conditions in solid-liquid phase systems via retention on RP-HPLC, and in liquid-liquid phase systems by conventional shake-flask method. […] All in one, an experimental log D7.0–7.4 value of ~2.7 promised a good potential for brain uptake of [^18F]IV in vivo, attended by low unspecific binding.
Referring to an OECD guideline and using a series of reference compounds (nitrobenzene, p-nitrophenol, benzene, toluene, chlorobenzene, benzophenone, naphthalene, 1,4-dibromobenzene, biphenyl, diphenylether, 1,4-diiodobenzene) with known log POW values comprised between 1.89 and 4.64, retention times were determined on two reversed phase columns (Multospher 120 RP-18 AQ, 250 mm × 4.6 mm, 5 μm, CS-Chromatographie Service GmbH, Langerwehe, Germany; SupelcosilTM ABZ + Plus, 250 × 4 mm, 5 μm, Supelco, Bellefonte, PA, USA). […] Dead times t0 were determined by retention of thiourea. Corresponding capacity factors k for all compounds were calculated and plotted as log k versus log P of the standard compounds, affording calibration curves (Microcal^TM Origin 6.0, Microcal Software, Inc., Northhampton, MA, USA). […]

Data set [3] deals with T1, PDE10A. The data set is described as follows: Homologous competitive binding on membrane homogenates of PDE10A-transfected SF21 cells. To be noted: read-out: IC50 (homologous competition vs [18F]IV). As to the method: The dissociation constant KD of [^18F]IV was determined in homologous competitive binding experiments by nonlinear regression analysis. Cell membrane homogenates from PDE10A-transfected SF21 cells (100 µg protein/mL incubation volume) were incubated with solutions of six concentrations of IV (working concentration 10 pM–[…]), each spiked with a fixed concentration of [^18F]IV (working concentration 0.05–0.1 nM).
Crude membrane homogenates isolated from PDE10A-transfected SF21 cells were obtained from Biocrea GmbH, Radebeul, Germany. For competitive radioligand displacement experiments (n = 2), the membrane preparations were diluted with incubation buffer (50 mM Tris-HCl, pH 7.4 at room temperature, 5 mM MgCl2) and re-homogenized by passing through a 27-gauge needle. The protein (100 µg) was incubated with 0.05–0.1 nM of [^18F]IV and different concentrations of IV (10 pM–1 µM), diluted from a 10 mM stock in DMSO, at a final volume of 1 mL. Nonspecific binding was determined in the presence of 10 µM of I, and control incubation was carried out accordingly using crude membrane preparations obtained from non-transfected SF21 cells.
Incubation at room temperature was terminated after 120 min by rapid filtration (Brandel 48-channel harvester; Biomedical Research and Development Lab. Inc., Gaithersburg, MD, USA) on Whatman GF/B glass-fiber filters, pre-soaked for 90 min in 0.3% polyethylenimine (Sigma, Deisenhofen, Germany), followed by washing four times with 4 mL of ice-cold wash buffer (50 mM Tris-HCl, pH 7.4 at 4 °C). Filter-bound radioactivity was quantified using a calibrated γ-counter (Wallac WIZARD, Perkin Elmer, Waltham, MA, USA).
Each experiment was carried out in triplicate. The binding parameter IC50 was estimated using iterative non-linear curve fitting. KD of [^18F]IV was estimated directly from homologous competition curve with KD = IC50-[radioligand] as well as from the respective saturation isotherm by nonlinear regression analysis.

Data set [4] has as its target T1, PDE10A. Also on record: method as in earlier work. To be noted: cited from earlier work.
Another data set concerns PDE3A. Also on record: method as in earlier work. The conditions noted are these: cited from earlier work.
The test system of the next data set is PDE4A. Also on record: method as in earlier work. The conditions noted are these: cited from earlier work.
The subject of a further data set is PDE 1B. Also on record: method as in earlier work. To be noted: cited from earlier work.
In another data set the test system is PDE 2A. Also on record: method as in earlier work. The conditions noted are these: cited from earlier work.
For another data set, the system named is PDE 5A. Also on record: method as in earlier work. The conditions noted are these: cited from earlier work.
The subject of a further data set is PDE 6. Also on record: method as in earlier work. To be noted: cited from earlier work.
The subject of the next data set is PDE 7B. Also on record: method as in earlier work. To be noted: cited from earlier work.
The next data set concerns PDE 8A. Also on record: method as in earlier work. To be noted: cited from earlier work.
In the next data set the test system is PDE 9A. Also on record: method as in earlier work. To be noted: cited from earlier work.
The subject of a further data set is PDE 11A. Also on record: method as in earlier work. The conditions noted are these: cited from earlier work.

T1 sequence (Q9Y233 whole entry, species assumed): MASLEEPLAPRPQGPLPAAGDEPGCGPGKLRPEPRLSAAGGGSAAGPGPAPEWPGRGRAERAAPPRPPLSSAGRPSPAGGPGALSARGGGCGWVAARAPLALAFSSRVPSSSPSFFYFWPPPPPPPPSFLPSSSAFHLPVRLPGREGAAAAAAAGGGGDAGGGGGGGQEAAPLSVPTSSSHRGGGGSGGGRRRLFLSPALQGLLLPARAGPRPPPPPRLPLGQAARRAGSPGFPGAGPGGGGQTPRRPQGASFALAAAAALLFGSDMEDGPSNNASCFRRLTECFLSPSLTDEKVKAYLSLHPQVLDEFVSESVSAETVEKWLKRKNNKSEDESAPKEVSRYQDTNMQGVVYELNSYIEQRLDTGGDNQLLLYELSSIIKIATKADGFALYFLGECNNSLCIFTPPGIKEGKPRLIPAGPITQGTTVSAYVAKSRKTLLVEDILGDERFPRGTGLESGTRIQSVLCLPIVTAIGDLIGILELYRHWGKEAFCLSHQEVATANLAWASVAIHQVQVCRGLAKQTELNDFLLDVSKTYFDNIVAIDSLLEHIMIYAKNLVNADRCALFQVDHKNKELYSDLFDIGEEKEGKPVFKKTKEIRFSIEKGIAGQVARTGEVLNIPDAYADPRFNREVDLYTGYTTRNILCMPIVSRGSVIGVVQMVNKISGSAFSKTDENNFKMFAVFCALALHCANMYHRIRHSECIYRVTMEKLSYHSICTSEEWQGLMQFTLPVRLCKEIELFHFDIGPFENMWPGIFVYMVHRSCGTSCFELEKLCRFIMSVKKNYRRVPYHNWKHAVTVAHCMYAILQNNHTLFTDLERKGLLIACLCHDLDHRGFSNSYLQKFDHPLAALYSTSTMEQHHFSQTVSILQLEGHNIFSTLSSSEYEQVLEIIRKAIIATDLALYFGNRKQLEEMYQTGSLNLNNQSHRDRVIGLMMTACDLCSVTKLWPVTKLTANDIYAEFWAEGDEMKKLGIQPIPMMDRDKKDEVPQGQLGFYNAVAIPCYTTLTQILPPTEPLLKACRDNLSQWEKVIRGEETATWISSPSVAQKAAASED

Take `Cc1cnc(COc2ccc(-c3nn(CCF)cc3-c3ccncc3)cc2)c(C)c1` [JNJ42259152]: the “pIC50,PDE10A” value on PDE10A [1] is 8.8.

For the compound `FCCn1cc(-c2ccncc2)c(-c2ccc(OCc3ccc4ccccc4n3)cc2)n1` [JNJ41510417], on PDE10A [1], the IC50 (in general, the concentration that gives 50% inhibition) was 0.5 nM and the “pIC50,PDE10A” value is reported as 9.3.

Turning to `COc1cc2c(N3CC[C@@H](Oc4cnc5ccccc5n4)C3)ncnc2cc1OCCF` [IV, (R)-7-(2-fluoroethoxy)-6-methoxy-4-(3-(quinoxalin-2-yloxy)pyrrolidin-1-yl)quinazoline], the chromatographic logD in [2] (Multospher 120 RP-18 AQ column, Multospher) was 2.63; in [2] (Supelcosil ABZ+Plus column, Supelcosil), 2.63. The IC50 on PDE10A [3] (mean, n = 2, 0.05–0.1 nM [18F]IV) was 39.3 nM; on PDE10A [3] (single experiments (n = 2)), 38.3 nM and 40.4 nM; on PDE10A [4] (PDE10A) it was 105 nM; in the data set with PDE3A it was 88.7 nM; in the data set with PDE4A, 562 nM; with PDE 1B, more than 1000 nM. The concentration for half-maximal inhibition (IC50) in the data set on PDE 2A, in the data set on PDE 5A, in the data set on PDE 6, in the data set with PDE 7B, in the data set on PDE 8A and with PDE 9A was more than 1000 nM each time. Further, in the data set with PDE 11A, the IC50 is more than 1000 nM. Further, the inhibitory constant (Ki) (commonly the equilibrium dissociation constant of an inhibitor or competing ligand from its target) at PDE10A [4] (data to be published in detail elsewhere) was 53 nM.

The values above are taken from article PMC3763632, “Radiosynthesis and Radiotracer Properties of a 7-(2-[^18F]Fluoroethoxy)-6-methoxypyrrolidinylquinazoline for Imaging of Phosphodiesterase 10A with PET” (Pharmaceuticals, 2012).
